Tests used:
[1] = system: Alternaria solani; experiment: Alternaria solani/Tomato/Leaf Disc (Early Blight); format: in vivo; conditions: foliar, tomato leaf disc, compared to untreated control
Method: Tomato leaf disks cv. Baby are placed on agar in multiwell plates (24-well format) and sprayed with the formulated test compound diluted in water. The leaf disks are inoculated with a spore suspension of the fungus 2 days after application. The inoculated leaf disks are incubated at 23° C./21° C. (day/night) and 80% rh (relative humidity) under a light regime of 12/12 h (light/dark) in a climate cabinet and the activity of a compound is assessed as percent disease control compared to untreated when an appropriate level of disease damage appears on untreated check disk leaf disks (5-7 days after application).

[2] = system: Puccinia recondita f. sp. tritici; experiment: Puccinia recondita f. sp. tritici/Wheat/Leaf Disc Preventative (Brown Rust); format: in vivo; conditions: foliar, 200 ppm, wheat leaf disc preventative, compared to untreated control, read-out: control of Puccinia recondita f. sp. tritici
[3] = system: Monographella nivalis (Microdochium nivale); experiment: Monographella nivalis (Microdochium nivale)/Liquid Culture (Foot Rot Cereals); format: cell-based; conditions: liquid culture, compared to untreated control
How it was run: (§1)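 Growth inhibition read in liquid culture: spores from frozen stocks, suspended in potato dextrose broth, meet DMSO-dissolved compound placed beforehand in the plate.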

[4] = system: Puccinia recondita f. sp. tritici; experiment: Puccinia recondita f. sp. tritici/Wheat/Leaf Disc Curative (Brown Rust); format: in vivo; conditions: foliar, wheat leaf disc curative, compared to untreated control
How it was run: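 Formulated compound, diluted in water, is applied to inoculated wheat cv. Kanzler leaf segments on agar one day post-inoculation (pre-incubation dark, 19° C, 75% rh). After 6-8 days at 19° C, 75% rh and 12 h/12 h light, activity is rated as percent disease control relative to untreated segments.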

[5] = system: Mycosphaerella graminicola (Septoria tritici); experiment: Mycosphaerella graminicola (Septoria tritici)/Liquid Culture (Septoria Blotch); format: cell-based; conditions: Zymoseptoria tritici; 20 ppm; liquid culture; compared to untreated control
How it was run: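 Results given as % disease control: test compound in DMSO was placed in wells first, then potato dextrose broth carrying cryostored fungal conidia was added.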

[6] = system: Glomerella lagenarium (Colletotrichum lagenarium); experiment: Glomerella lagenarium (Colletotrichum lagenarium)/Liquid Culture (Anthracnose); format: cell-based; conditions: Colletotrichum orbiculare, liquid culture, compared to untreated control
[7] = system: Mycosphaerella arachidis (Cercospora arachidicola); experiment: Mycosphaerella arachidis (Cercospora arachidicola)/Liquid Culture (Early Leaf Spot); format: cell-based; conditions: liquid culture, compared to untreated control
How it was run: as §1

[8] = system: Blumeria graminis f. sp. tritici (Erysiphe graminis f. sp. tritici); experiment: Blumeria graminis f. sp. tritici/Wheat/Leaf Disc Preventative (Powdery Mildew on Wheat); format: in vivo; conditions: foliar, wheat leaf disc preventative, compared to untreated control
How it was run: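 Preventative leaf-disc test: percent disease control versus untreated leaf segments read 6-8 days post-application. Compound spray applied to wheat cv. Kanzler segments on agar one day before shaking infected plants over them; incubation at 20° C and 60% rh, 24 h darkness then 12 h light/12 h dark cycles.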

[9] = system: Plasmopara viticola; experiment: whole plant or invertebrate; format: in vivo; conditions: foliar, read-out: control of Plasmopara viticola
[10] = system: Phakopsora pachyrhizi; experiment: Phakopsora pachyrhizi/Soybean/Preventative (Soybean Rust); format: in vivo; conditions: foliar, 288 h, 200 ppm, soybean leaf disc preventative, compared to untreated control, read-out: control of Phakopsora pachyrhizi
[11] = system: Magnaporthe grisea (Pyricularia oryzae); experiment: whole plant or invertebrate; format: in vivo; conditions: foliar, read-out: control of Magnaporthe grisea
[12] = system: Botryotinia fuckeliana (Botrytis cinerea); experiment: Botryotinia fuckeliana (Botrytis cinerea)/Liquid Culture (Gray Mould); format: cell-based; conditions: liquid culture, compared to untreated control
Method: Conidia of the fungus from cryogenic storage are directly mixed into nutrient broth (Vogels broth). After placing a (DMSO) solution of test compound into a microtiter plate (96-well format), the nutrient broth containing the fungal spores is added.

[13] = system: Pyrenophora teres; experiment: Pyrenophora teres/Barley/Leaf Disc Preventative (Net Blotch); format: in vivo; conditions: foliar, 200 ppm, barley leaf disc preventative, compared to untreated control, read-out: control of Pyrenophora teres
Source text: Barley leaf segments cv. Hasso are placed on agar in a multiwell plate (24-well format) and sprayed with the formulated test compound diluted in water. The leaf segments are inoculated with a spore suspension of the fungus 2 days after application. […] The data are presented as the percentage of disease control of each compound for the biological tests against G. lagenarium (Example B3), P. recondita preventative (Example B13), P. teres (Example B15) and M. graminicola (Example B19) as described above. The testing rates of each biological test is specifically described in table C1 below.

[14] = system: Phytophthora infestans; experiment: whole plant or invertebrate; format: in vivo; conditions: in Solanum lycopersicum, foliar, read-out: control of Phytophthora infestans
[15] = system: Phaeosphaeria nodorum (Septoria nodorum); experiment: Phaeosphaeria nodorum (Septoria nodorum)/Wheat/Leaf Disc Preventative (Glume Blotch); format: in vivo; conditions: Parastagonospora nodorum, foliar, wheat leaf disc preventative, compared to untreated control
How it was run: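 Preventative test: compound spray first, then spore inoculation after 2 days on cv. Kanzler wheat leaf segments. Incubation in a climate cabinet at 20 °C and 75% rh under a 12 h light/12 h dark cycle. Activity rated as % control relative to untreated discs at 5–7 days post-application.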

Structure (SMILES)	pest or weed control at 200 ppm [1] [%]	pest or weed control at 200 ppm [2] [%]	inhibition of growth at 20 ppm [3] [%]	pest or weed control at 200 ppm [4] [%]	inhibition of growth at 20 ppm [5] [%]	inhibition of growth at 20 ppm [6] [%]	inhibition of growth at 20 ppm [7] [%]	pest or weed control at 200 ppm [8] [%]	pest or weed control at 200 ppm [9] [%]	pest or weed control at 200 ppm [10] [%]	pest or weed control at 200 ppm [11] [%]	inhibition of growth at 20 ppm [12] [%]	pest or weed control at 200 ppm [13] [%]	pest or weed control at 200 ppm [14] [%]	pest or weed control at 200 ppm [15] [%]	melting point [°C]
CO/C=C(\Oc1cccc(-n2ccc(C(F)(F)F)n2)c1)C(=O)OC [Compound E-15, methyl (Z)-3-methoxy-2-[3-[3-(trifluoromethyl)pyrazol-1-yl]phenoxy]prop-2-enoate]	≥ 80	≥ 80	≥ 80	≥ 80	≥ 80	≥ 80	≥ 80	≥ 80								
CO/C=C(\Oc1cc(-n2ccc(C(F)(F)F)n2)c(Cl)cc1C)C(=O)OC [Compound E-27, methyl (Z)-2-[4-chloro-2-methyl-5-[3-(trifluoromethyl)pyrazol-1-yl]phenoxy]-3-methoxy-prop-2-enoate]	≥ 80	≥ 80	≥ 80	≥ 80	≥ 80	≥ 80	≥ 80	≥ 80	≥ 80	≥ 50	≥ 80					
CO/C=C(\Oc1cc(-n2cc(Cl)cn2)ccc1C)C(=O)OC [Compound E-54, methyl (Z)-2-[5-(4-chloropyrazol-1-yl)-2-methyl-phenoxy]-3-methoxy-prop-2-enoate]		≥ 80	≥ 80		≥ 80	≥ 80	≥ 80	≥ 80	≥ 80			≥ 80	≥ 80	≥ 80	≥ 80	
CO/C=C(\Oc1cc(-n2cc(C)c(C(F)(F)F)n2)ccc1C)C(=O)OC [Compound E-75, methyl (Z)-3-methoxy-2-[2-methyl-5-[4-methyl-3-(trifluoromethyl)pyrazol-1-yl]phenoxy]prop-2-enoate]		≥ 80	≥ 80		≥ 80		≥ 80	≥ 80	≥ 80			≥ 80	≥ 80		≥ 80	131 to 134
CO/C=C(\Oc1cc(-n2cc(C(F)(F)F)cn2)ccc1C)C(=O)OC [Compound E-81, methyl (Z)-3-methoxy-2-[2-methyl-5-[4-(trifluoromethyl)pyrazol-1-yl]phenoxy]prop-2-enoate]		≥ 80	≥ 80		≥ 80	≥ 80	≥ 80	≥ 80	≥ 80	≥ 50	≥ 80	≥ 80	≥ 80	≥ 80	≥ 80	102 to 105
CO/C=C(\Oc1cc(-n2cc(Cl)c(C3CCCCC3)n2)ccc1C)C(=O)OC [Compound E-112, methyl (Z)-2-[5-(4-chloro-3-cyclohexyl-pyrazol-1-yl)-2-methyl-phenoxy]-3-methoxy-prop-2-enoate]			≥ 80	≥ 80		≥ 80	≥ 80		≥ 80		≥ 80		≥ 80		≥ 80	150 to 152
CO/C=C(\Oc1cc(-n2cc(C)c(C3CCCCC3)n2)ccc1C)C(=O)OC [Compound E-113, methyl (Z)-2-[5-(3-cyclohexyl-4-methyl-pyrazol-1-yl)-2-methyl-phenoxy]-3-methoxy-prop-2-enoate]	≥ 80	≥ 80	≥ 80		≥ 80	≥ 80	≥ 80		≥ 80		≥ 80			≥ 80	≥ 80	145 to 148
CO/C=C(\Oc1cc(-n2ccc(C3CCCCC3)n2)c(F)cc1C)C(=O)OC [Compound E-114, methyl (Z)-2-[5-(3-cyclohexylpyrazol-1-yl)-4-fluoro-2-methyl-phenoxy]-3-methoxy-prop-2-enoate]		≥ 80	≥ 80	≥ 80	≥ 80	≥ 80	≥ 80	≥ 80	≥ 80		≥ 80		≥ 80	≥ 80	≥ 80	
CO/C=C(\Oc1cc(-n2ccc(C(F)(F)Cl)n2)ccc1C)C(=O)OC [Compound E-118, methyl (Z)-2-[5-[3-[chloro(difluoro)methyl]pyrazol-1-yl]-2-methyl-phenoxy]-3-methoxy-prop-2-enoate]		≥ 80	≥ 80	≥ 80	≥ 80	≥ 80	≥ 80	≥ 80	≥ 80		≥ 80		≥ 80	≥ 80	≥ 80	146 to 148
C=C(C)c1cnn(-c2ccc(C)c(O/C(=C\OC)C(=O)OC)c2)n1 [Compound F-11, methyl (Z)-2-[5-(4-isopropenyltriazol-2-yl)-2-methyl-phenoxy]-3-methoxy-prop-2-enoate]		≥ 80	≥ 80	≥ 80	≥ 80	≥ 80	≥ 80	≥ 80	≥ 80		≥ 80		≥ 80	≥ 80	≥ 80	
CCON=C(C)c1cnn(-c2ccc(C)c(O/C(=C\OC)C(=O)OC)c2)n1 [Compound F-12, methyl (Z)-2-[5-[4-(N-ethoxy-C-methyl-carbonimidoyl)triazol-2-yl]-2-methyl-phenoxy]-3-methoxy-prop-2-enoate]		≥ 80	≥ 80	≥ 80	≥ 80	≥ 80	≥ 80	≥ 80	≥ 80		≥ 80		≥ 80	≥ 80	≥ 80	113 to 116
